The record followed here is patent publication EP0610377B1, “TRI-SUBSTITUTED TETRAHYDROFURAN ANTIFUNGALS” (SCHERING CORPORATION, priority 1991, dated 1993).

Type in all cases: in vivo
Assay [1] concerns Aspergillus flavus. Description: Aspergillus flavus pulmonary infection model in compromised mice, oral treatment.
In assay [2] the test system is Aspergillus flavus. The assay is described as above. The settings on record: for %SURVIVAL / %ANIMALS NEG: 18 days post infection; for %SURVIVAL: compromised CF-1 mice; for %ANIMALS NEG: negative = <10 colonies. From the text:
The in vivo oral antifungal activity of the compounds of Example 23-26 were compared to those of itraconazole, fluconazole and saperconazole in an Aspergillus pulmonary infection model in mice. The procedure of David Loebenberg et al. entitled "Sch 42427, The Active Enantiomer of Antifungal agent Sch 39304: In Vitro and In Vivo Activity" Antimicrobial Agents and Chemotherapy (1992), 36 498-501 was used. The Aspergillus flavus pulmonary model was run in the following manner Male, CF-1 mice weighing 20 grams were compromised with cortisone acetate (100 mg/kg), administered subcutaneously, once daily for 3 days. In addition, to prevent bacterial disease, tetracycline HCL (300 mg/1) was added to the drinking water and given ad libitum. On day 2 of compromising, mice were infected in an inhalation chamber, first described by Piggot and Emmons in 1960 and modified by us. The chamber is a 1 liter pyrex, thick-walled flask with 8 tubular side-arms that extend into the flask. Each side-arm is a pyrex tube of 14 cm length, constricted to a 1 cm opening inside the flask. The bottom of the flask was covered with a malt extract agar medium on which a sporulating culture of A. flavus ATCC 24133 was grown for 13 days at room temperature. The top of the flask was closed with a #10 stopper through which passed a glass tube attached by rubber tubing to a 60 mL syringe. Mice were placed in each of the side arms and pushed to the bottoms so that their nares extended beyond the open end of the tube and over the agar. Cotton plugs were then inserted behind the mice to hold them in place. By pumping the 60 mL syringe twice, air was forced over the culture and produced a cloud of spores. Mice were exposed to the spore cloud for one minute. Within 15-30 minutes after exposure, a number of mice were sacrificed and lung tissue samples homogenized for culture to determine the number of inhaled conidia. Oral treatment began 24 h post-infection with doses of 5 to 250 mg of drug/kg in ethanol; vehicle (115 ml of Emulphor EL-719P, GAF, Wayne, NJ; and 5 ml of 20% w/v lactic acid per liter of water), 10:90 v/v, once daily for 4 days.
The procedure of Example 31 was used to compare the in vivo oral antifungal activity of (±)-5R/S-(cis)-4-[4-[4-[4-[[5-(2,4-difluorophenyl)-5-(1H-1,2,4-triazol-1-ylmethyl) tetrahydrofuran-3-yl]methoxy-phenyl-1-piperazinyl]phenyl]-2,4-dihydro-2[(R/S)-(1-methylpropyl)]-3H-1,2,4-triazol-3-one with (±)-2R/S-(cis)-1-[4-[[2-(2,4-difluorophenyl)-2-(1H-1,2,4-triazol-1-ylmethyl) tetrahydro-4-furanyl]methoxy]phenyl]-4-(1-methylethyl)piperazine of Example 68 of USP 5,039,676 in an Aspergillus pulmonary infection model described in Example 31. […]
The procedures of Examples 31 and 34 were used.

Another assay relates to C. albicans C-43. Description: Candida systemic model in CF1 mice infected IV with C. albicans C-43, oral treatment. The settings on record: for %SURVIVAL: day 4 post-infection; for CFUs (GM): day 4. The protocol:
The compounds of Examples 23-26 and itraconazole, fluconazole, and saperconazole were tested for in vivo oral antifungal activity in a Candida systemic model using CF1 male mice , average weight 20 g, Harlan Sprague Dawley, Inc., Indianapolis, Ind. infected by IV injection into the tail vein of C. albicans C-43 (5 million CFUs). […] Oral efficacy was measured after four (4) days by percent survival and by the number of organisms remaining in the kidneys i.e., the Colony Forming Units (CFUs). The mice were sacrificed and the kidneys of individual mice were homogenized in sterile saline, diluted and spread onto Mycosel agar. Colony counts were determined after 48 hours at 37°C. For calculation of geometric means, mice that died during the experiment were considered to have 10^9 CFUs/kidneys (based on numerous previous experiments).

A further assay relates to C. albicans C-65. The assay is described as follows: Candida systemic model in normal and compromised CF1 mice infected with C. albicans C-65, oral treatment. The settings on record: for % S (Percent Survival): day 4 post-infection; for CFUs (GM): day 4, geometric mean of the logarithms of CFU in the kidneys. The protocol: The compounds of Examples 23-26 and itraconazole, fluconazole, and saperconazole were tested for in vivo oral antifungal activity in a Candida systemic model using CF1 male mice , average weight 20 g, Harlan Sprague Dawley, Inc., Indianapolis, Ind. infected by IV injection into the tail vein of C. albicans C-43 (5 million CFUs). The drugs were dissolved in polyethylene glycol-200 (PEG-200) and tested by orally administering 50, 25 and 10 mpk of each drug 4 hours post infection and once daily for 3 more days. Oral efficacy was measured after four (4) days by percent survival and by the number of organisms remaining in the kidneys i.e., the Colony Forming Units (CFUs). The mice were sacrificed and the kidneys of individual mice were homogenized in sterile saline, diluted and spread onto Mycosel agar. Colony counts were determined after 48 hours at 37°C. For calculation of geometric means, mice that died during the experiment were considered to have 10^9 CFUs/kidneys (based on numerous previous experiments).
The compounds of Examples 23-24 and itraconazole, fluconazole, were tested for in vivo oral antifungal anctivity in a Candida systemic model using normal and compromised CF1 mice infected with C. albicans C-65 (5 million CFUs). The procedure of Example 33 was followed. The drugs were dissolved in polyethylene glycol-200 ("PEG-200) at room temperature and tested by orally administering 100, 50, 25, 10 and 1 mpk of each drug. Oral efficacy was measured by percent survival and by the number of organisms remaining in the kidneys (CFUs) after four days. […] The pharmaceutical composition of the preferred compound of formula IIb of Eample 24 in hydroxypropyl beta cyclodextrin ("HPβCD") having 7.4 hydroxypropyl groups per HPβCD (obtained from Pharmatec, Inc., Alachua, FL 32615) was prepared by admixing the appropriate amount of the compound IIa with a 40% (w/v) solution of HPβCD (4 g of HPβCD per 10 mL of purified water). Gentle heating was used to form a clear solution. For the 10 mpk dose, 12 mg of Ha was added to 6 mL of a 40% w/v solution of HPβCD. For dilutions, sterile water was added to the solution with mixing. The pharmaceutical composition of itraconazole and the Pharmatec HPβCD described above was prepared as follows. Propylene glycol (10 mL) was admixed with 0.95 mL of concentrated HCI at 40°-45°C with stirring. Itraconazole (2.5 g) was added thereto and stirring was continued until homogeneous. The mixture so formed was cooled to 20° to 30°C and admixed with a solution of 60 g of HPβCD in 40 mL of purified water to form a clear solution. The pH was adjusted to a value of 1.9-2.1 with 10N NaOH and sufficient purified water added (with mixing) to a final volume of 100 mL. For dilutions, sterile water was added to the itraconazole - HPβCD.

The mark [3] stands for this setting: 50 mg/kg PO in PEG-200, OD for 4 days, CF-1 mice.
The mark [4] stands for this setting: 100 mg/kg PO in PEG-200, OD for 4 days, CF-1 mice.
The mark [5] stands for this setting: 200 mg/kg PO in PEG-200, OD for 4 days, CF-1 mice.
The mark [6] stands for this setting: 33 mg/kg PO once a day for 4 days.
Where [7] appears, read: 66 mg/kg PO once a day for 4 days.
Where [8] appears, read: 100 mg/kg PO once a day for 4 days.

Molecules are shown by their SMILES.

As for `CCC(C)n1ncn(-c2ccc(N3CCN(c4ccc(OC[C@@H]5CO[C@@](Cn6cncn6)(c6ccc(F)cc6F)C5)cc4)CC3)cc2)c1=O` (mixture of isomers) [Compound 1 of Table III of Examples 34, (±)-5R/S-(cis)-4-[4-[4-[4-[[5-(2,4-difluorophenyl)-5-(1H-1,2,4-triazol-1-ylmethyl)tetrahydrofuran-3-yl]methoxyphenyl-1-piperazinyl]phenyl]-2,4-dihydro-2[(RS)-(1-methylpropyl)]-3H-1,2,4-triazol-3-one], the “Percent Survival After 11 Days” value in the assay with Aspergillus flavus [1] (setting [3]) turned out to be 16.7; in the assay on Aspergillus flavus [1] (setting [4]) it was 41.7; in the assay on Aspergillus flavus [1] (setting [5]), 50.0. In the assay with Aspergillus flavus [1] (head prints 50 mg/kg (third dose column, c3), in PEG-200 daily for 4 days, CF-1 mice), the “PERCENT SURVIVAL AFTER 5 DAYS (5D)” value amounted to 50.
Regarding `CC(C)N1CCN(c2ccc(OC[C@@H]3CO[C@@](Cn4cncn4)(c4ccc(F)cc4F)C3)cc2)CC1` (racemic) [Example 68 of US Patent 5,039,676, (±)-2R/S-(cis)-1-[4-[[2-(2,4-difluorophenyl)-2-(1H-1,2,4-triazol-1-ylmethyl)tetrahydro-4-furanyl]methoxy]phenyl]-4-(1-methylethyl)piperazine, reference compound], in the assay with Aspergillus flavus [2] (PO, result in words (active / inactive)), the “oral activity in the Aspergillus pulmonary mouse model” value is “inactive”. Moreover, the “Percent Survival After 11 Days” value in the assay on Aspergillus flavus [1] (setting [3]), in the assay on Aspergillus flavus [1] (setting [4]) and in the assay with Aspergillus flavus [1] (setting [5]) was 0 throughout.
Take `CC[C@H](C)n1ncn(-c2ccc(N3CCN(c4ccc(OC[C@H]5CO[C@](Cn6cncn6)(c6ccc(F)cc6F)C5)cc4)CC3)cc2)c1=O` [Example 25, (+)-[(5S)-cis]-4-[4-[4-[4-[[5-(2,4-Difluorophenyl)-5-(1H-1,2,4-triazol-1-ylmethyl)tetrahydrofuran-3-yl]methoxy]phenyl]-1-piperazinyl]phenyl]-2,4-dihydro-2-[(1S)-(1-methylpropyl)]-3H-1,2,4-triazol-3-one]: the “%SURVIVAL” value with Aspergillus flavus [2] (setting [6]) amounted to 0%; with Aspergillus flavus [2] (setting [7]), 0%; in the assay on Aspergillus flavus [2] (setting [8]), 10%; in the assay with Aspergillus flavus [1] (33 mg/kg PO [3RX/DAY] for 4 days, 18 days post infection, compromised CF-1 mice), 20%; in the assay with C. albicans C-43 (10 MPK PO in PEG-200, 1 a day x 4 days) it was 0%; in the assay on C. albicans C-43 (25 MPK PO in PEG-200, 1 a day x 4 days) it was 0%. Further, in the assay with C. albicans C-43 (50 MPK PO in PEG-200, 1 a day x 4 days), the “%SURVIVAL” value worked out at 0%. The “%ANIMALS NEG” value was found to be 0% with Aspergillus flavus [2] (setting [6]); 0% in the assay with Aspergillus flavus [2] (setting [7]); 0% with Aspergillus flavus [2] (setting [8]); 10% in the assay on Aspergillus flavus [1] (33 mg/kg PO [3RX/DAY] for 4 days, 18 days post infection, negative = <10 colonies). Moreover, the “CFUs (GM)” value in the assay with C. albicans C-43 (10 MPK PO in PEG-200, geometric mean of the logarithms of CFU remaining in the kidneys (dead mice counted as 10^9)) is reported as 9.00; in the assay on C. albicans C-43 (25 MPK PO in PEG-200, geometric mean of the logarithms of CFU remaining in the kidneys (dead mice counted as 10^9)) it was 9.00; in the assay with C. albicans C-43 (50 MPK PO in PEG-200, geometric mean of the logarithms of CFU remaining in the kidneys (dead mice counted as 10^9)) it was 9.00.
With `OC(Cn1cncn1)(Cn1cncn1)c1ccc(F)cc1F` [Fluconazole, reference compound], the “%SURVIVAL” value is 10% in the assay on Aspergillus flavus [2] (setting [8]); 70% in the assay with C. albicans C-43 (1 MPK PO in ETOH/Mon, 1 a day x 4 days); 90% in the assay with C. albicans C-43 (10 MPK PO in ETOH/Mon, 1 a day x 4 days). Further, the “%ANIMALS NEG” value in the assay with Aspergillus flavus [2] (setting [8]) worked out at 0%. Further, the “CFUs (GM)” value in the assay on C. albicans C-43 (1 MPK PO in ETOH/Mon, geometric mean of the logarithms of CFU remaining in the kidneys) turned out to be 6.58; in the assay with C. albicans C-43 (10 MPK PO in ETOH/Mon, geometric mean of the logarithms of CFU remaining in the kidneys) it was 5.68; with C. albicans C-65 (600 Rads Mice (compromised), 10 MPK PO in PEG-200), 8.01; in the assay with C. albicans C-65 (600 Rads Mice (compromised), 25 MPK PO in PEG-200) it was 6.91; in the assay with C. albicans C-65 (Normal Mice, 1 MPK PO in PEG-200), 5.81; in the assay on C. albicans C-65 (Normal Mice, 10 MPK PO in PEG-200), 5.35. Besides, the “% S (Percent Survival)” value in the assay on C. albicans C-65 (600 Rads Mice (compromised), 10 MPK PO in PEG-200, 1/day x 4 days) amounted to 20%; with C. albicans C-65 (600 Rads Mice (compromised), 25 MPK PO in PEG-200, 1/day x 4 days), 50%; in the assay with C. albicans C-65 (Normal Mice, 1 MPK PO in PEG-200, 1/day x 4 days), 60%; in the assay with C. albicans C-65 (Normal Mice, 10 MPK PO in PEG-200, 1/day x 4 days), 80%.
